Series [1] relates to RAW 264.7 macrophages treated with LeTx (PA and LF).
In a further series the target is LF protease activity (Bacillus anthracis, UniProt P15917). Briefly: biochemical.
Series [2] has as its system RAW 264.7 macrophages treated with LeTx (PA and LF). The series is described as follows: cells. The note with it: Mus musculus, RAW264.7, read-out: IC50 Cell Viability.
The target of a further series is COX-1 (Homo sapiens, UniProt P23219). Particulars: read-out: IC50 COX-1; cited from earlier work.
The target of series [3] is Anthrax Lethal Factor (LF) (Bacillus anthracis, UniProt P15917). The series is described as follows: biochemical. Type of series: binding.
For series [4] the following is noted: in vivo, cited from earlier work.
The target of the next series is COX-2 (Homo sapiens, UniProt P35354). Particulars: read-out: IC50 COX-2; cited from earlier work.

Data on 8 compounds can be found in US20150087605A1 (priority 2013, published 2015).

Where two headings read alike, the source gives them in different places.

Sequence of LF protease activity (P15917 34-809 limits assumed): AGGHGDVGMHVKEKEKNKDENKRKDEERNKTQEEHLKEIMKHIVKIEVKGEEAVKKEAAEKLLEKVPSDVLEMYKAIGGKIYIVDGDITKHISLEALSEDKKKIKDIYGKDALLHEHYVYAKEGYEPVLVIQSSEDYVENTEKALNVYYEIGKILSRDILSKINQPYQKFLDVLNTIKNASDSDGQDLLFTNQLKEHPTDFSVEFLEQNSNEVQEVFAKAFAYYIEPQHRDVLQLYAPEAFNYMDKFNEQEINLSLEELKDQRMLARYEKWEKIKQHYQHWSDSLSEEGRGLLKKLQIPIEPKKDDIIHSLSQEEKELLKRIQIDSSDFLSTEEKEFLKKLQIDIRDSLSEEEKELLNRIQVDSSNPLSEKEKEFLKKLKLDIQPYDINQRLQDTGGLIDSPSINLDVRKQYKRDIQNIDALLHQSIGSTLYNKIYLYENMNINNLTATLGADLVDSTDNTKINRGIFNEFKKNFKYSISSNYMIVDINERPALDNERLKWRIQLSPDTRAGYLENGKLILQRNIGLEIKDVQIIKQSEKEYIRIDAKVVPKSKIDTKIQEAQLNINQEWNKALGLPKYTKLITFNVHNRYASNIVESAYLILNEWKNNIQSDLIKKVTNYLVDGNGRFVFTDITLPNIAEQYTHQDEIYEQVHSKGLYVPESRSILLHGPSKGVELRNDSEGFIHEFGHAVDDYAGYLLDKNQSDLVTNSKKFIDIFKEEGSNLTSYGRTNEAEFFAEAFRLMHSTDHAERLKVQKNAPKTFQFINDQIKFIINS
Sequence of Anthrax Lethal Factor (LF) (P15917 34-809 limits assumed): as above
Sequence of COX-2 (P35354 18-604): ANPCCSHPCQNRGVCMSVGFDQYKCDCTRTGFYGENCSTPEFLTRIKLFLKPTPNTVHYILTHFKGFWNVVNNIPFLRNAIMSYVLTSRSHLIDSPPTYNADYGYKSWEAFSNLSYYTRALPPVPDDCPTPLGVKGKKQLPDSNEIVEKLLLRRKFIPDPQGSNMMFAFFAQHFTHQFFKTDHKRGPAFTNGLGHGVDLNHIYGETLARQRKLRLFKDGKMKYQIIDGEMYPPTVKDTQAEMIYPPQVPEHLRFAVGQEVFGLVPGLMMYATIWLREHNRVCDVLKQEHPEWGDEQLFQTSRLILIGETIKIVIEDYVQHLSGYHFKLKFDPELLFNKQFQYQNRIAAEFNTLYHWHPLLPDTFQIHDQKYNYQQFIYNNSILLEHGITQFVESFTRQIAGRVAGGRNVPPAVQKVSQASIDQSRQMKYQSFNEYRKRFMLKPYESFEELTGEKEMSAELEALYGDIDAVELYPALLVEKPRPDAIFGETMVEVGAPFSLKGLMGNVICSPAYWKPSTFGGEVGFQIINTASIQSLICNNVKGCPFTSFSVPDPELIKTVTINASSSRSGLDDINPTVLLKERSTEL
Sequence of COX-1 (P23219 24-599): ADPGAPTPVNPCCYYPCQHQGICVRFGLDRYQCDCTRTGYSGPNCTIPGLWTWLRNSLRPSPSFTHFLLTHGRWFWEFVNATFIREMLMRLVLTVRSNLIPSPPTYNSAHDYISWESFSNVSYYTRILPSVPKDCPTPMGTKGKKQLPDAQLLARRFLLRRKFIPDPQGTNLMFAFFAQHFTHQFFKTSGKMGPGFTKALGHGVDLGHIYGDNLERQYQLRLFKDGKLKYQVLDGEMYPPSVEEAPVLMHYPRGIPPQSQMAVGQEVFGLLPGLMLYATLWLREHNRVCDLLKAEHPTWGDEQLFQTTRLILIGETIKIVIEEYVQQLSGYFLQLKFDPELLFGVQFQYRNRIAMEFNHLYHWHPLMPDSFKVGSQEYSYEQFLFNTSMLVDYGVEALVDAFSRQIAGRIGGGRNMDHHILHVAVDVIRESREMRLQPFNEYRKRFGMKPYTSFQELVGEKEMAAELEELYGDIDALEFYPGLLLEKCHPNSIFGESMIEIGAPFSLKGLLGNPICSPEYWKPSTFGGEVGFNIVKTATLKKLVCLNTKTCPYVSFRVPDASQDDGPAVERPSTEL

One may read the IC50 as the point on the concentration scale where inhibition reaches its midpoint. For the compound `CC1=C(CC(=O)O)c2cc(F)ccc2/C1=C\c1ccc(S(C)(=O)=O)cc1` [sulindac sulfone, Sulindac Sulfone], the IC50 was determined as 56.6 µM in series [1] (read-out: IC50 Cell Viability) and 185 µM on LF protease activity (read-out: IC50 Protease Activity).

For the compound `CCCCc1ccc(C(=O)NCCCN=[N+]=[N-])nc1` [fusaric acid-N3], the IC50 is 1100 µM against LF protease activity (IC50 (fluorogenic substrate assay)) and 164 µM in series [2].

With `CSc1ccc(/C=C2/C(C)=C(CC(=O)O)c3cc(F)ccc32)cc1` [sulindac sulfide, Sulindac Sulfide], the IC50 on LF protease activity (IC50 Protease Activity) was determined as 19.1 µM; in series [2], 20.4 µM.

What is called Kd is the constant that tells how readily two partners part at equilibrium. Low readings indicate a tighter complex, high ones a looser complex. Take `CC1=C(CC(=O)O)c2cc(F)ccc2/C1=C\c1ccc([S+](C)[O-])cc1` (stereo not shown) [Sulindac]: the IC50 on COX-1 is 41.3 µM; on LF protease activity (IC50 Protease Activity) it was 173 µM; in series [2], 31.7 µM; on COX-2 it was 25 µM. This compound gave a Kd in series [3] of 2.8 µM. Besides, in series [4] (150 mg), the mean half-life is reported as 7.8 h. In series [4], the “maximum concentration in human blood plasma” value is 5.71 ± 2.17 µg/mL.

As for `CCCCc1ccc(C(=O)NCCCn2cc(CNC(C)=O)nn2)nc1` [fusaric acid-bMR], the IC50 in series [1] (mouse) amounted to 0.721 µM; at LF protease activity (IC50 Protease Activity) it was 1.2 ± 0.36 µM.

`CC1=C(CC(=O)NCCCN=[N+]=[N-])c2cc(F)ccc2/C1=C\c1ccc([S+](C)[O-])cc1` (stereo not shown) [sulindac-N3]: the results for the IC50 (against LF protease activity (IC50 Protease Activity); in series [2]) were 420 µM and 90.1 µM, respectively.

`COc1ccc2cc([C@H](C)C(=O)O)ccc2c1` [Naproxen, (S)-(+)-6-Methoxy-α-methyl-2-naphthaleneacetic acid]: the “inhibition of LeTx cytotoxicity (in words)” value in series [1] was “failed to inhibit LeTx”. Further, the “inhibition of LF protease activity (in words)” value against LF protease activity was “failed to inhibit LF”.

The compound `CCCCc1ccc(C(=O)O)nc1` [Fusaric Acid] had a Kd in series [3] of 4.5 µM. Moreover, the concentration for half-maximal inhibition (IC50) turned out to be 530 µM against LF protease activity (IC50 Protease Activity) and 75.3 µM in series [2].
